This passage reports IC50 results from patent publication US20220106328A1, “HETEROCYCLIC COMPOUNDS” (Hoffmann-La Roche Inc., priority 2019, published 2022).

The target in the assay is T1, MAGL (Homo sapiens, UniProt Q99685).
T1 sequence (Q99685 1-303): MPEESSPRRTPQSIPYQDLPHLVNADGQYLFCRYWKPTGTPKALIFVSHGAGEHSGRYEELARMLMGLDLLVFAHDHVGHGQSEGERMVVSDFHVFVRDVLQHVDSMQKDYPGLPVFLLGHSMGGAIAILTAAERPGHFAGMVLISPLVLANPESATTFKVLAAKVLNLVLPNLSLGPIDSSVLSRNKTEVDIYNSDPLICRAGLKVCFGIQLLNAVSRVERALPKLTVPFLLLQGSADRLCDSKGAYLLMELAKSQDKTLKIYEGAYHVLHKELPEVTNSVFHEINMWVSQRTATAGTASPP
Briefly: 2-AG assay (MAGL inhibitory activity; hydrolysis of 2-arachidonoylglycerol to arachidonic acid followed by mass spectrometry). It is filed as biochemical. As to conditions: 8 μM 2-arachidonoylglycerol, 15 min pre-incubation, 30 min incubation at rt, RapidFire MS read-out. How it is done:
Compounds were profiled for MAGL inhibitory activity by determining the enzymatic activity by following the hydrolysis of the natural substrate 2-arachidonoylglycerol resulting in arachidonic acid, which can be followed by mass spectrometry. This assay is hereinafter abbreviated “2-AG assay”.
A C18 SPE cartridge (G9205A) was used in an ACN/water liquid setup. […] The activity of the compounds was calculated based on the ratio of intensities [arachidonic acid/d8-arachidonic acid].
In the case of `O=C1CO[C@@H]2CCN(C(=O)N3CC(c4ccc(-c5ccc(F)cc5F)cc4)C3)C[C@H]2N1` (single isomer, unassigned) [Example 13, (+)- or (−)-trans-6-[3-[4-(2,4-Difluorophenyl)phenyl]azetidine-1-carbonyl]-4,4a,5,7,8,8a-hexahydropyrido[4,3-b][1,4]oxazin-3-one], the IC50 (in general, the midpoint of a concentration-inhibition curve) was determined as 93 nM.

For `O=C1CO[C@@H]2CCN(C(=O)N3CCC4(CC3)CC(Oc3ccc(C(F)(F)F)cc3F)C4)C[C@H]2N1` (single isomer, unassigned) [Example 26, (+)- or (−)-trans-6-[2-[2-Fluoro-4-(trifluoromethyl)phenoxy]-7-azaspiro[3.5]nonane-7-carbonyl]-4,4a,5,7,8,8a-hexahydropyrido[4,3-b][1,4]oxazin-3-one], the IC50 turned out to be 118 nM.

On to `O=C1CO[C@H]2CCN(C(=O)N3CCC4(CC3)CC(Oc3ccc(C(F)(F)F)cc3F)C4)C[C@@H]2N1` (single isomer, unassigned) [Example 27, (−)- or (+)-trans-6-[2-[2-Fluoro-4-(trifluoromethyl)phenoxy]-7-azaspiro[3.5]nonane-7-carbonyl]-4,4a,5,7,8,8a-hexahydropyrido[4,3-b][1,4]oxazin-3-one], for which the IC50 stood at 7 nM.

As to `O=C1CO[C@H]2CCN(C(=O)N3CC(OCc4ccc(OC(F)(F)F)cc4)C3)C[C@@H]2N1` (single isomer, unassigned) [Example 23, (−)- or (+)-trans-6-[3-[[4-(Trifluoromethoxy)phenyl]methoxy]azetidine-1-carbonyl]-4,4a,5,7,8,8a-hexahydropyrido[4,3-b][1,4]oxazin-3-one], the IC50 worked out at 411 nM.

On to `O=C1COC2CCN(C(=O)N3CC(OCc4ccc(C(F)(F)F)cc4F)C3)CC2N1` (single isomer, unassigned) [Example 5, (+)- or (−)-trans-6-[3-[[2-Fluoro-4-(trifluoromethyl)phenyl]methoxy]azetidine-1-carbonyl]-4,4a,5,7,8,8a-hexahydropyrido[4,3-b][1,4]oxazin-3-one], for which the IC50 stood at 327 nM.

On to `O=C1COC2CCN(C(=O)N3CC(c4ccc(C5(C(F)(F)F)CC5)cc4)C3)CC2N1` (single isomer, unassigned) [Example 4, (−)- or (+)-trans-6-[3-[4-[1-(Trifluoromethyl)cyclopropyl]phenyl]azetidine-1-carbonyl]-4,4a,5,7,8,8a-hexahydropyrido[4,3-b][1,4]oxazin-3-one], for which the IC50 turned out to be 15 nM.

In the case of `O=C1COC2CCN(C(=O)N3CC(OCc4ccc(C(F)(F)F)cc4F)C3)CC2N1` (single isomer, unassigned) [Example 6, (−)- or (+)-trans-6-[3-[[2-Fluoro-4-(trifluoromethyl)phenyl]methoxy]azetidine-1-carbonyl]-4,4a,5,7,8,8a-hexahydropyrido[4,3-b][1,4]oxazin-3-one], the IC50 came out at 143 nM.

Regarding `O=C1CO[C@@H]2CCN(C(=O)N3CC(c4ccc(CC(F)(F)F)cc4)C3)C[C@H]2N1` (single isomer, unassigned) [Example 15, (+)- or (−)-trans-6-[3-[4-(2,2,2-Trifluoroethyl)phenyl]azetidine-1-carbonyl]-4,4a,5,7,8,8a-hexahydropyrido[4,3-b][1,4]oxazin-3-one], the IC50 was found to be 357 nM.

Regarding `O=C1CO[C@H]2CCN(C(=O)N3CC(c4ccc(Oc5ccccc5)cc4)C3)C[C@@H]2N1` (single isomer, unassigned) [Example 12, (−)- or (+)-trans-6-[3-(4-Phenoxyphenyl)azetidine-1-carbonyl]-4,4a,5,7,8,8a-hexahydropyrido[4,3-b][1,4]oxazin-3-one], the IC50 came to 7 nM.

Take `O=C1CO[C@@H]2CCN(C(=O)N3CC(OCc4ccc(OC(F)(F)F)cc4)C3)C[C@H]2N1` (single isomer, unassigned) [Example 22, (+)- or (−)-trans-6-[3-[[4-(Trifluoromethoxy)phenyl]methoxy]azetidine-1-carbonyl]-4,4a,5,7,8,8a-hexahydropyrido[4,3-b][1,4]oxazin-3-one]: the IC50 was determined as 920 nM.

For the compound `O=C1CO[C@H]2CCN(C(=O)N3CC(c4ccc(CC(F)(F)F)cc4)C3)C[C@@H]2N1` (single isomer, unassigned) [Example 16, (−)- or (+)-trans-6-[3-[4-(2,2,2-Trifluoroethyl)phenyl]azetidine-1-carbonyl]-4,4a,5,7,8,8a-hexahydropyrido[4,3-b][1,4]oxazin-3-one], the IC50 came out at 58 nM.

On to `O=C1CO[C@@H]2CCN(C(=O)N3CCC(Cc4ccc(C(F)(F)F)cc4)CC3)C[C@H]2N1` (single isomer, unassigned) [Example 28, (+)- or (−)-trans-6-[4-[[4-(Trifluoromethyl)phenyl]methyl]piperidine-1-carbonyl]-4,4a,5,7,8,8a-hexahydropyrido[4,3-b][1,4]oxazin-3-one], for which the IC50 was found to be 2560 nM.

As to `O=C1CO[C@@H]2CCN(C(=O)N3CC4(CC(Cc5ccc(F)cc5F)C4)C3)C[C@H]2N1` (single isomer, unassigned) [Example 17, (+)- or (−)-trans-6-[6-[(2,4-Difluorophenyl)methyl]-2-azaspiro[3.3]heptane-2-carbonyl]-4,4a,5,7,8,8a-hexahydropyrido[4,3-b][1,4]oxazin-3-one], the IC50 was determined as 24 nM.

In the case of `O=C1CO[C@H]2CCN(C(=O)N3CCC(c4cn(CCO)c5ccc(Cl)cc45)CC3)C[C@@H]2N1` (single isomer, unassigned) [Example 30, (−)- or (+)-trans-6-[4-[5-Chloro-1-(2-hydroxyethyl)indol-3-yl]piperidine-1-carbonyl]-4,4a,5,7,8,8a-hexahydropyrido[4,3-b][1,4]oxazin-3-one], the IC50 worked out at 530 nM.

In the case of `O=C1CO[C@H]2CCN(C(=O)N3CC(c4ccc(OC(F)(F)F)c(Cl)c4)C3)C[C@@H]2N1` (single isomer, unassigned) [Example 8, (−)- or (+)-trans-6-[3-[3-Chloro-4-(trifluoromethoxy)phenyl]azetidine-1-carbonyl]-4,4a,5,7,8,8a-hexahydropyrido[4,3-b][1,4]oxazin-3-one], the IC50 amounted to 56 nM.

As to `O=C1CO[C@@H]2CCN(C(=O)N3CC(c4ccc(OC(F)(F)F)c(Cl)c4)C3)C[C@H]2N1` (single isomer, unassigned) [Example 7, (+)- or (−)-trans-6-[3-[3-Chloro-4-(trifluoromethoxy)phenyl]azetidine-1-carbonyl]-4,4a,5,7,8,8a-hexahydropyrido[4,3-b][1,4]oxazin-3-one], the 50% inhibitory concentration (IC50) was 424 nM.

For `O=C1CO[C@H]2CCN(C(=O)N3CC4(CC(Cc5ccc(F)cc5F)C4)C3)C[C@@H]2N1` (single isomer, unassigned) [Example 18, (−)- or (+)-trans-6-[6-[(2,4-Difluorophenyl)methyl]-2-azaspiro[3.3]heptane-2-carbonyl]-4,4a,5,7,8,8a-hexahydropyrido[4,3-b][1,4]oxazin-3-one], the IC50 is 12 nM.

On to `O=C1CO[C@@H]2CCN(C(=O)N3CC(OCc4ccc(C(F)(F)F)cc4Cl)C3)C[C@H]2N1` (single isomer, unassigned) [Example 20, (+)- or (−)-trans-6-[3-[[2-Chloro-4-(trifluoromethyl)phenyl]methoxy]azetidine-1-carbonyl]-4,4a,5,7,8,8a-hexahydropyrido[4,3-b][1,4]oxazin-3-one], for which the IC50 is 220 nM.
